In ChEMBL document CHEMBL3098066, “Minimum active structure of insulin-like peptide 5” (J Med Chem, 2013):
Calls of active or inactive are those of the source. The rule behind the calls is not given here. Where a SMILES comes first, the peptide text is derived from it. Bridges are numbered along the chain shown (N, C = ends). The star is where a group is joined. Acm = CC(=O)NC*; tBu = CC(C)(C)*; Cam = NC(=O)C*

How the values were obtained:
[1] = molecular target: Relaxin-3 receptor 2 (Homo sapiens) (UniProt Q8TDU9); experiment: Agonist activity at human RXFP4 transfected in CHO-K1 cells at 0.01 nM to 1000 nM by beta-galactosidase reporter gene assay relative to forskolin; assay type: functional, cell-based
Chain of Relaxin-3 receptor 2 (Homo sapiens) (Q8TDU9 whole entry): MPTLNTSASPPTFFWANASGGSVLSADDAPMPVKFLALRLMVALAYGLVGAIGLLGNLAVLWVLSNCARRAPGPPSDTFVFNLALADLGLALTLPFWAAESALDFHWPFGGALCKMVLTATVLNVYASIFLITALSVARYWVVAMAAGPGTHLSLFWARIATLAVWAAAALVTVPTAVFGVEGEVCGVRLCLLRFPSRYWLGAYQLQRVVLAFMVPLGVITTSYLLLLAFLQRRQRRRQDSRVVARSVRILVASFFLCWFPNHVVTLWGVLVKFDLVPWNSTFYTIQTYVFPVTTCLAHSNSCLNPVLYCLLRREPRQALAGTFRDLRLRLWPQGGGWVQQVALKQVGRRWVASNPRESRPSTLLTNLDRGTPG

[2] = molecular target: Relaxin-3 receptor 2 (Homo sapiens) (UniProt Q8TDU9); experiment: Displacement of Eu(A)-mINSL5 acid from human RXFP4 transfected in CHO-K1 cells by fluorescence-based assay; assay type: cell-based
[3] = molecular target: Relaxin-3 receptor 2 (Homo sapiens) (UniProt Q8TDU9); experiment: Agonist activity at human RXFP4 transfected in CHO-K1 cells assessed as inhibition of forskolin-induced cAMP production by beta-galactosidase reporter gene assay; assay type: functional, cell-based
[4] = molecular target: Relaxin-3 receptor 2 (Homo sapiens) (UniProt Q8TDU9); experiment: Agonist activity at human RXFP4 transfected in CHO-K1 cells at 10 uM by beta-galactosidase reporter gene assay relative to forskolin; assay type: functional, cell-based
[5] = molecular target: Relaxin-3 receptor 2 (Homo sapiens) (UniProt Q8TDU9); experiment: Agonist activity at human RXFP4 transfected in CHO-K1 cells up to 10 uM by beta-galactosidase reporter gene assay relative to forskolin; assay type: functional, cell-based

Emax [1] | pIC50 [2] | pEC50 [3] | Emax [4] | Emax [5] | Compound
inactive | inactive | inactive | – | – | CSCC[C@H](NC(=O)[C@H](CO)NC(=O)[C@H](CSCC(N)=O)NC(=O)CNC(=O)[C@H](CCC(=O)O)NC(=O)[C@H](CCCNC(=N)N)NC(=O)[C@H](CSC(C)(C)C)NC(=O)[C@H](CSCC(N)=O)NC(=O)[C@H](CC(C)C)NC(=O)[C@H](C)NC(=O)[C@H](CCC(N)=O)NC(=O)[C@H](CC(C)C)NC(=O)[C@H](CC(=O)O)NC(=O)[C@@H](N)CCCNC(=N)N)C(=O)N[C@@H](CCCCN)C(=O)N[C@@H](CCC(=O)O)C(=O)N[C@@H](CC(C)C)C(=O)N[C@@H](CO)C(=O)N[C@H](C(=O)N[C@@H](CC(C)C)C(=O)N[C@@H](CSCNC(C)=O)C(=O)O)[C@@H](C)O (H-RDLQALC(Cam)C(tBu)REGC(Cam)SMKELSTLC(Acm)-OH)
inactive | inactive | inactive | – | – | CSCC[C@H](NC(=O)[C@H](CO)NC(=O)[C@@H]1CSSC[C@H](NC(=O)[C@H](CC(C)C)NC(=O)[C@H](C)NC(=O)[C@H](CCC(N)=O)NC(=O)[C@H](CC(C)C)NC(=O)[C@H](CC(=O)O)NC(=O)[C@@H](N)CCCNC(=N)N)C(=O)N[C@@H](CSC(C)(C)C)C(=O)N[C@@H](CCCNC(=N)N)C(=O)N[C@@H](CCC(=O)O)C(=O)NCC(=O)N1)C(=O)N[C@@H](CCCCN)C(=O)N[C@@H](CCC(=O)O)C(=O)N[C@@H](CC(C)C)C(=O)N[C@@H](CO)C(=O)N[C@H](C(=O)N[C@@H](CC(C)C)C(=O)N[C@@H](CSCNC(C)=O)C(=O)O)[C@@H](C)O (H-RDLQALCC(tBu)REGCSMKELSTLC(Acm)-OH; disulfide 7-12)
– | inactive | inactive | inactive | – | H-SRQTVKLAGLDYVRTVIYIAASSRW-OH
– | inactive | inactive | – | inactive | H-SRQTVKLAGLDYVRTVIYIAR-OH
